{"source": "PubChem BioAssay (NCI)", "assay_in_all_cases": "NCI anticancer screen, dose series, 48 h", "key": {"SK-MEL-5 melanoma": {"tested_on": "SK-MEL-5 melanoma"}, "UACC-257 melanoma": {"tested_on": "UACC-257 melanoma"}, "NCI-H226 lung": {"tested_on": "NCI-H226 lung"}, "LOX IMVI melanoma": {"tested_on": "LOX IMVI melanoma"}, "CAKI-1 renal": {"tested_on": "CAKI-1 renal"}, "A498 renal": {"tested_on": "A498 renal"}, "SK-MEL-2 melanoma": {"tested_on": "SK-MEL-2 melanoma"}, "NCI-H23 lung": {"tested_on": "NCI-H23 lung"}, "EKVX NSCLC": {"tested_on": "EKVX NSCLC"}, "HCC-2998 colon": {"tested_on": "HCC-2998 colon"}, "NCI/ADR-RES ovarian": {"tested_on": "NCI/ADR-RES ovarian"}, "HS 578T breast": {"tested_on": "HS 578T breast"}, "PC-3 prostate": {"tested_on": "PC-3 prostate"}, "786-0 renal": {"tested_on": "786-0 renal"}, "OVCAR-5 ovarian": {"tested_on": "OVCAR-5 ovarian"}, "OVCAR-3 ovarian": {"tested_on": "OVCAR-3 ovarian"}, "SN12C renal": {"tested_on": "SN12C renal"}, "A549 NSCLC": {"tested_on": "A549 NSCLC"}, "SK-OV-3 ovarian": {"tested_on": "SK-OV-3 ovarian"}, "NCI-H522 lung": {"tested_on": "NCI-H522 lung"}}, "note": "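A five-concentration, 48-hour dose response in 96-well plates underlies each endpoint, interpolated linearly between surrounding concentrations. TGI: total growth inhibition.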", "data": [{"molecule": "Cc1ccc2nc(C=Nc3ccc(Cl)cc3)cc(C)c2c1", "values": [{"measurement": "TGI", "setting": "SK-MEL-5 melanoma", "value": 25.2, "unit": "µM"}, {"measurement": "TGI", "setting": "UACC-257 melanoma", "value": 36.5, "unit": "µM"}, {"measurement": "TGI", "setting": "NCI-H226 lung", "value": 72.7, "unit": "µM"}, {"measurement": "TGI", "setting": "LOX IMVI melanoma", "value": 20.1, "unit": "µM"}, {"measurement": "TGI", "setting": "CAKI-1 renal", "value": "> 76.7", "unit": "µM"}, {"measurement": "TGI", "setting": "A498 renal", "value": "> 100", "unit": "µM"}, {"measurement": "TGI", "setting": "SK-MEL-2 melanoma", "value": "> 100", "unit": "µM"}, {"measurement": "TGI", "setting": "NCI-H23 lung", "value": 38, "unit": "µM"}, {"measurement": "TGI", "setting": "EKVX NSCLC", "value": "> 100", "unit": "µM"}, {"measurement": "TGI", "setting": "HCC-2998 colon", "value": 6.62, "unit": "µM"}, {"measurement": "TGI", "setting": "NCI/ADR-RES ovarian", "value": 32.1, "unit": "µM"}, {"measurement": "TGI", "setting": "HS 578T breast", "value": "> 69.4", "unit": "µM"}, {"measurement": "TGI", "setting": "PC-3 prostate", "value": "> 76.5", "unit": "µM"}, {"measurement": "TGI", "setting": "786-0 renal", "value": 35.3, "unit": "µM"}, {"measurement": "TGI", "setting": "OVCAR-5 ovarian", "value": "> 100", "unit": "µM"}, {"measurement": "TGI", "setting": "OVCAR-3 ovarian", "value": 32.2, "unit": "µM"}, {"measurement": "TGI", "setting": "SN12C renal", "value": 29.4, "unit": "µM"}, {"measurement": "TGI", "setting": "A549 NSCLC", "value": "> 100", "unit": "µM"}, {"measurement": "TGI", "setting": "SK-OV-3 ovarian", "value": "> 100", "unit": "µM"}, {"measurement": "TGI", "setting": "NCI-H522 lung", "value": 26.6, "unit": "µM"}]}]}
